Reference: patent publication US8648208B2, “Activating agent for peroxisome proliferator activated receptor” (Nippon Chemiphar Co. Ltd., priority 2008, dated 2014)

Assays:
hPPARα (LBD) = biological target: T1, hPPARα (LBD) (Homo sapiens, UniProt Q07869); assay: PPAR activating effect, GAL4-hPPARα LBD luciferase reporter transfection in CV-1 cells; format: cell-based; settings: Table 26, test compound 10^-7 M, 100% = GW-590735 10^-6 M
T1 construct: A receptor expression plasmid (pSG5-GAL4-hPPARα or γ or δ (LBD)); GAL4 (fusion partner); expressed in transfected cells; host or cells: CV-1 cells (ATCC)
T1 sequence (Q07869 239-466 limits assumed): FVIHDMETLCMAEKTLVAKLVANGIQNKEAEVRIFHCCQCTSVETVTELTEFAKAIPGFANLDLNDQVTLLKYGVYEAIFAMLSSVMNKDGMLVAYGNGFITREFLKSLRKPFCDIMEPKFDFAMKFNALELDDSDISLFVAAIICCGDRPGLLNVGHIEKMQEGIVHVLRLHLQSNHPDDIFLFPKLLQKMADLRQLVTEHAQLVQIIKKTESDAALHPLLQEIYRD

hPPARδ (LBD) = biological target: T2, hPPARδ (LBD) (Homo sapiens, UniProt Q03181); assay: PPAR activating effect, GAL4-hPPARδ LBD luciferase reporter transfection in CV-1 cells; format: cell-based; settings: CV-1, 40 h; read-out: PPAR activity δ (relative value to control compound)
T2 construct: A receptor expression plasmid (pSG5-GAL4-hPPARα or γ or δ (LBD)); GAL4 (fusion partner); expressed in transfected cells; host or cells: CV-1 cells (ATCC)
T2 sequence (Q03181 211-439 limits assumed): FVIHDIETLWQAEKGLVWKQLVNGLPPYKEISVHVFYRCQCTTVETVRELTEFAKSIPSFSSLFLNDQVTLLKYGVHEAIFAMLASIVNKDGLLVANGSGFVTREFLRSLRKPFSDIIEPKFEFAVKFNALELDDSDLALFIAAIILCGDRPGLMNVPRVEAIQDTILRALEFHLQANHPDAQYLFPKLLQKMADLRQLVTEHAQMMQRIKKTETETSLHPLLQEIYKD

hPPARγ (LBD) = biological target: T3, hPPARγ (LBD) (Homo sapiens, UniProt P37231); assay: PPAR activating effect, GAL4-hPPARγ LBD luciferase reporter transfection in CV-1 cells; format: cell-based; settings: Table 26, test compound 10^-7 M, 100% = Rosiglitazone 10^-5 M
T3 construct: A receptor expression plasmid (pSG5-GAL4-hPPARα or γ or δ (LBD)); GAL4 (fusion partner); expressed in transfected cells; host or cells: CV-1 cells (ATCC)
T3 sequence (P37231 238-503 limits assumed): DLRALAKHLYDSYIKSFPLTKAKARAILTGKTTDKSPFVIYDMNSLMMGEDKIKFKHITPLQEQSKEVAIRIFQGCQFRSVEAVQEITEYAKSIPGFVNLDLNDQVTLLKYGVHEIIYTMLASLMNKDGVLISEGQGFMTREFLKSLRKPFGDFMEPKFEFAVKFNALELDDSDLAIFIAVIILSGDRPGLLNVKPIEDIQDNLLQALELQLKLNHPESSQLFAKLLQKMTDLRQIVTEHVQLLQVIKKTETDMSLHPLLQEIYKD

activation at 0.1 µM (hPPARα (LBD); CV-1, 40 h, read-out: PPAR activity α (relative value to control compound)) [%] | activation at 0.1 µM (hPPARδ (LBD)) [%] | activation at 0.1 µM (hPPARγ (LBD); CV-1, 40 h, read-out: PPAR activity γ (relative value to control compound)) [%] | melting point [°C] | PPAR activity α (relative value to control compound) (hPPARα (LBD)) | PPAR activity γ (relative value to control compound) (hPPARγ (LBD)) | SMILES
16.4 | 77.2 | 5.8 | 147 to 149 |  |  | CCCc1c(CCc2noc3cc(N(C)CC(=O)O)c(C)cc23)sc2cc(C(F)(F)F)ccc12 [Example 24, N-[5-Methyl-3-[2-[3-propyl-6-(trifluoromethyl)benzothiophen-2-yl]ethyl]benzisoxazol-6-yl]-N-methylglycine]
 | 87.4 |  |  | Inactive | Inactive | CCCc1c(CCc2noc3cc(OCC(=O)O)c(C)cc23)sc2cc(C(F)(F)F)ccc12 [Example 25, [5-Methyl-3-[2-[3-propyl-6-(trifluoromethyl)benzothiophen-2-yl]ethyl]benzisoxazol-6-yloxy]acetic acid]
 | 88.8 |  |  | Inactive | Inactive | CCCc1c(CCc2noc3cc(CCC(=O)O)c(C)cc23)sc2cc(C(F)(F)F)ccc12 [Example 26, 3-[5-Methyl-3-[2-[3-propyl-6-(trifluoromethyl)benzothiophen-2-yl]ethyl]benzisoxazol-6-yl]propionic acid]
 | 81.3 |  | 153 to 156 | Inactive | Inactive | CC(C)c1c(CCc2noc3cc(N(C)CC(=O)O)ccc23)sc2cc(C(F)(F)F)ccc12 [Example 28, N-[3-[2-[3-Isopropyl-6-(trifluoromethyl)benzothiophen-2-yl]ethyl]benzisoxazol-6-yl]-N-methylglycine]
